# Experimental data: publication PMC7876696 (ACS Omega, 2021)
# Target: T1, Hup (histone-like DNA-binding protein of H. pylori) (Helicobacter pylori, UniProt O25506)
# T1 sequence (O25506 1-94): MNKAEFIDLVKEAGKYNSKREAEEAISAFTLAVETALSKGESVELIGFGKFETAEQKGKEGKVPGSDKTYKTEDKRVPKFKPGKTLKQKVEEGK
# Assay: ligand-observed 1H NMR titration
smiles,measurement,value
O=C(O[C@@H]1Cc2c(O)cc(O)cc2O[C@@H]1c1cc(O)c(O)c(O)c1)c1cc(O)c(O)c(O)c1 [EGCG],Kd,3.29 ± 0.42 µM
